The record followed here is patent EP0267740A1, “Naphthyridine and pyridopyrazine compounds and pharmaceutical usage thereof” (SCHERING CORPORATION, priority 1986, dated 1988).

Assay [1] deals with release of SRS-A from sensitized guinea pig lung fragments. Put plainly: Measurement of SRS-A release from sensitized guinea pig lung fragments after antigen (ovalbumin) challenge. It is filed as cell-based. As to conditions: Dose (Molar Conc.) 1 x 10^-5; lung fragments incubated with compound 12 min at 37°C, challenge with 20µg ovalbumin/ml. On the procedure:
The anti-allergy property of the compounds of this invention is evaluated by measuring the inhibition of the release of the mediator SRS-A (slow reacting substance of anaphylaxis) from sensitized guinea pig lung fragments after antigen challenge.
The release of SRS-A and histamine was studied in lungs from actively sensitized guinea pigs. Male Hartley guinea pigs (250-300 g, obtained from Charles River or Dutchland Farms) were sensitized with 5 mg ovalbumin injected intraperitoneally and 5 mg subcutaneously in 1 ml saline on day one, and 5 mg ovalbumin injected intraperitoneally on day four. The sensitized animals were used 3-4 weeks later.
Sensitized guinea pigs were killed by a blow to the head and the lungs removed and cleaned of visable connective tissue, trachea and large blood vessels. The lungs from individual animals were sliced into fragments approximately 1 mm in thickness using a McIlwain chopper and then washed with oxygenated Tyrode's buffer. Weighed aliquots (approximately 400 mg wet weight) of lung were transferred into vials containing 2 ml of fresh Tyrode's solution and incubated in the presence or absence of test compound for 12 min at 37°C followed by challenge of the tissue with 20µg ovalbumin/ml (final concentration). After an additional 15 min incubation, the vials were cooled to 4°C and 1.5 ml of clear supernatant media was removed and mixed with 6 ml of cold 100% ethanol. This mixture was thoroughly vortexed and kept at -15°C for 30 min to allow precipitation of protein. The samples were then centrifuged at 1000 x g for 15 min at 2°C and the clear supernatant fluid removed into polyethylene tubes and taken to dryness at 50°C under a stream of N₂ gas. The samples were stored at -70°C until assayed for SRS-A by bioassay or radioimmune assay.

Assay [2] in a line: Reversed Passive Arthus Reaction (RPAR) paw technique, anti-inflammatory test. It is filed as in vivo, Male Lewis inbred albino rats. To be noted: Oral Dose 25 mg/kg by gavage in methyl cellulose, rat paw volume 2 hours post-challenge. On the procedure:
The compounds of this invention are also effective for the treatment of inflammation; thus they are useful for the treatment of arthritis, bursitis, tendonitis, gout and other inflammatory conditions. […] The potency of the compounds described and claimed herein for treatment of inflammatory conditions is determined using indomethacin as the standard.
Male Lewis inbred albino rats weighing 180-220 grams obtained from Charles River Breeding Laboratories are used in these experiments. The rats are housed 3 animals/cage and food and water are allowed ad libitum. The animals are numbered 1-3 in each cage and color marked for identification purposes.
All reagents and drugs are prepared just prior to the study. Crystallized and lyophilized bovine serum albumin (BSA), obtained from Sigma Chemical Company, is solubilized without shaking in cold sterile pyrogen free saline (10 mg/ml). […]
Groups of animals (6/group) are dosed with drug in MC by gavage one hour prior to sensitization with BSA. […] The volume of mercury displaced is converted to weight and recorded. […] Paw volumes are also recorded with a plethysmograph during the development of the inflammation at 2 and 4 hours post-challenge, and the results are shown in Table B below.

As for `CCCCc1c(O)c2cccnc2n(-c2ccc3c(c2)CCC3)c1=O` [3-(n-BUTYL)-4-HYDROXY-1-(5-INDANYL)-1,8-NAPHTHYRIDIN-2(1H)-ONE], in assay [1], the “% Inhibition (INHIBITION OF SRS-A RELEASE FROM GUINEA PIG LUNG)” value turned out to be 55%. The “% Inhibition 2 hrs.” value in assay [2] was determined as 23%.

Take `CCCCc1c(O)c2cccnc2n(-c2cccnc2)c1=O`: the “% Inhibition (INHIBITION OF SRS-A RELEASE FROM GUINEA PIG LUNG)” value in assay [1] was 33%. For the same compound, the “% Inhibition 2 hrs.” value in assay [2] came to 64%.

As to `O=C1CCN(c2ccccc2)N1` [1-phenyl-3-pyrazolidinone, reference compound], in assay [1], the “% Inhibition (INHIBITION OF SRS-A RELEASE FROM GUINEA PIG LUNG)” value is 41%.
